Key:
Format in all cases: ADME, cell membranes
Details in all cases: pH 7.4, 5 h
[1] = (§1) Apparent permeability of the compound across bacterial inner membrane mimic pure POPG in PBS buffer assessed as membrane retention at pH 7.4 incubated for 5 hrs in presence of 1,1-bis({6-[N'-(cyclopropylmethyl)carbamimidamido]hexyl})-3-{8-[N'-(cyclopropylmethyl)carbamimidamido]octyl}-3-octylurea by PAMPA based UV-Vis spectrophotometric analysis
[2] = (§2) Apparent permeability of the compound across bacterial inner membrane mimic POPE/POPG (6:4) in PBS buffer assessed as membrane retention at pH 7.4 incubated for 5 hrs in presence of 1,3,3-tris(8-carbamimidamidooctyl)-1-{8-[N'-(cyclopropylmethyl)carbamimidamido]octyl}urea trifluoroacetate salt by PAMPA based UV-Vis spectrophotometric analysis
[3] = Apparent permeability of the compound across bacterial inner membrane mimic POPE/POPG (6:4) in PBS buffer assessed as membrane retention at pH 7.4 incubated for 5 hrs in presence of 1,1-bis({6-[N'-(cyclopropylmethyl)carbamimidamido]hexyl})-3-{8-[N'-(cyclopropylmethyl)carbamimidamido]octyl}-3-octylurea by PAMPA based UV-Vis spectrophotometric analysis
[4] = Apparent permeability of the compound across bacterial inner membrane mimic pure POPG in PBS buffer assessed as membrane retention at pH 7.4 incubated for 5 hrs by PAMPA based UV-Vis spectrophotometric analysis
[5] = (§3) Apparent permeability of the compound across bacterial inner membrane mimic PC-phospholipids in PBS buffer assessed as membrane retention at pH 7.4 incubated for 5 hrs in presence of {8-[N'(cyclopropylmethyl)carbamimidamido]octyl}urea trifluoroacetate salt by PAMPA based UV-Vis spectrophotometric analysis
[6] = as §3, with “1,3-bis(8-carbamimidamidooctyl)-1,3-bis({8-[N'-(cyclopropylmethyl)carbamimidamido]octyl})urea” for “{8-[N'(cyclopropylmethyl)carbamimidamido]octyl}urea trifluoroacetate salt”
[7] = as §3, with “1,3-bis(8-aminooctyl)-1,3-bis(8- carbamimidamidooctyl)urea” for “{8-[N'(cyclopropylmethyl)carbamimidamido]octyl}urea”
[8] = as §1, with “PC-phospholipids” for “pure POPG”
[9] = Apparent permeability of the compound across bacterial inner membrane mimic pure POPG in PBS buffer assessed as membrane retention at pH 7.4 incubated for 5 hrs in presence of 1,3-bis(8-carbamimidamidooctyl)-1,3-bis({8-[N'-(cyclopropylmethyl)carbamimidamido]octyl})urea by PAMPA based UV-Vis spectrophotometric analysis
[10] = Apparent permeability of the compound across bacterial inner membrane mimic PC-phospholipids in PBS buffer assessed as membrane retention at pH 7.4 incubated for 5 hrs by PAMPA based UV-Vis spectrophotometric analysis
[11] = as §2, with “1,3-bis(8-aminooctyl)-1,3-bis(8- carbamimidamidooctyl)urea” for “1,3,3-tris(8-carbamimidamidooctyl)-1-{8-[N'-(cyclopropylmethyl)carbamimidamido]octyl}urea”
[12] = Apparent permeability of the compound across bacterial inner membrane mimic POPE/POPG (6:4) in PBS buffer assessed as membrane retention at pH 7.4 incubated for 5 hrs in presence of 1,3-bis(8-carbamimidamidooctyl)-1,3-bis({8-[N'-(cyclopropylmethyl)carbamimidamido]octyl})urea by PAMPA based UV-Vis spectrophotometric analysis
[13] = as §2, with “pure POPG” for “POPE/POPG (6:4)”
[14] = (§4) Apparent permeability of the compound across bacterial inner membrane mimic pure POPG in PBS buffer assessed as membrane retention at pH 7.4 incubated for 5 hrs in presence of {8-[N'(cyclopropylmethyl)carbamimidamido]octyl}urea trifluoroacetate salt by PAMPA based UV-Vis spectrophotometric analysis
[15] = as §4, with “1,3-bis(8-aminooctyl)-1,3-bis(8- carbamimidamidooctyl)urea” for “{8-[N'(cyclopropylmethyl)carbamimidamido]octyl}urea”
[16] = Apparent permeability of the compound across bacterial inner membrane mimic POPE/POPG (6:4) in PBS buffer assessed as membrane retention at pH 7.4 incubated for 5 hrs by PAMPA based UV-Vis spectrophotometric analysis
[17] = as §3, with “1,3,3-tris(8-carbamimidamidooctyl)-1-{8-[N'-(cyclopropylmethyl)carbamimidamido]octyl}urea” for “{8-[N'(cyclopropylmethyl)carbamimidamido]octyl}urea”
[18] = as §2, with “{8-[N'(cyclopropylmethyl)carbamimidamido]octyl}urea” for “1,3,3-tris(8-carbamimidamidooctyl)-1-{8-[N'-(cyclopropylmethyl)carbamimidamido]octyl}urea”

R% [1]: 14.7%
R% [2]: 19%
R% [3]: 16.7%
R% [4]: 4.5%
R% [5]: 12.8%
R% [6]: 12.6%
R% [7]: 15.8%
R% [8]: 0%
R% [9]: 13.5%
R% [10]: 3.2%
R% [11]: 16.5%
R% [12]: 12.6%
R% [13]: 14.6%
R% [14]: 13.4%
R% [15]: 17.1%
R% [16]: 3.3%
R% [17]: 8.1%
R% [18]: 17.5%
SMILES: Cn1c(=O)c2c(ncn2C)n(C)c1=O [CAFFEINE]
